Earlier results, collected in patent US6743947B1, “Electrochemically stable onium salts and electrolytes containing such for electrochemical capacitors” (The United States of America as represented by the …, priority 1999, dated 2004).
Read-outs that look alike come from different tables or passages of the source.

Legend:
[1] = room temperature

Q: What does the source list for `CC[N+](CC)(CC)CC.F[B-](F)(F)F` [Et4NBF4, tetraethylammonium tetrafluoroborate]?
A: conductivity ([1]; in AN, 1.4 M): about 50 mS/cm; conductivity ([1]; in PC, 0.65 M): 8.8 mS/cm; saturated salt concentration (in acetonitrile (AN), room temperatures): about 1.68 M; saturated concentration (in propylene carbonate (PC), room temperature): 0.86 M
